Experiment: Dynamic Vapor Sorption analysis
Format: physicochemical
Conditions: humidity range ~21-70% Relative Humidity, Material recrystallized from isopropanol
Text: The results of the XRPD analysis are shown both in Table I above and in FIG. 2. Dynamic Vapor Sorption analysis of this same materials was also done. […] (2 moles of water per molecule of the Compound would be 6.15% water).

water content (water weight gained): 6-7%
SMILES: C[C@@H]1CN(Cc2ccc(F)cc2)[C@@H](C)CN1C(=O)c1cc2c(C(=O)C(=O)N(C)C)cn(C)c2cc1Cl.Cl [Compound, (2R-trans)-6-chloro-5-[[4-[(4-fluorophenyl)methyl]-2,5-dimethyl-1-piperazinyl]carbonyl]-N,N, 1-trimethyl-alpha-oxo-1H-indole-3-acetamide monohydrochloride]

Source: patent US20070032506A1, “CRYSTALLINE FORMS OF (2R-TRANS)-6-CHLORO-5[[4-[(4-FLUOROPHENYL)METHYL]-2,5-DIMETHYL-1-PIPERAZINYL]CARBONYL]-N,N, 1-TRIMETHYL-ALPHA-OXO-1H-INDOLE-3-ACETAMIDE MONOHYDROCHLORIDE” (priority 2005, published 2007)
